As a reminder, the Ki is a dissociation constant, usually derived from enzyme kinetics or from competition with a known ligand. As usually defined, the EC50 is the concentration that produces a half-maximal response.

SMILES strings stand for the structures.

The target of assay [1] is T1, hNPFF1 (Homo sapiens, UniProt Q9GZQ6).
T1 construct: expressed in transfected cells
In words: Binding affinity at cloned recombinant human NPFF1 receptor.

The target in assay [2] is T2, hNPFF2 (Homo sapiens, UniProt Q9Y5X5).
T2 construct: expressed in transfected cells
T2 sequence (Q9Y5X5 103-522): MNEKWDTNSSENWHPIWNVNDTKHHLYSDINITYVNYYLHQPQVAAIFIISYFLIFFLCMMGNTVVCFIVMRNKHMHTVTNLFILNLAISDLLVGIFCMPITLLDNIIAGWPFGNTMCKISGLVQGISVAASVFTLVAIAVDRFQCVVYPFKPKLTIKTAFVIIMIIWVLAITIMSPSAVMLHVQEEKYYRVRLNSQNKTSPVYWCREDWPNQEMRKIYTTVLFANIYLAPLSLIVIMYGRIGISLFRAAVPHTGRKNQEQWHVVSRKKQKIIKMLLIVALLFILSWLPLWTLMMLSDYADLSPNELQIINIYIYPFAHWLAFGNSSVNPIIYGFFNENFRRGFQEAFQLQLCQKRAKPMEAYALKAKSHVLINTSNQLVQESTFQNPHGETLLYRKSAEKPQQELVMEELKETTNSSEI
In words: Binding affinity at cloned recombinant human NPFF2 receptor.

Assay [3] deals with T3, rNPFF1 (Rattus norvegicus, UniProt Q9EP86).
T3 construct: expressed in transfected cells
T3 sequence (Q9EP86 whole entry): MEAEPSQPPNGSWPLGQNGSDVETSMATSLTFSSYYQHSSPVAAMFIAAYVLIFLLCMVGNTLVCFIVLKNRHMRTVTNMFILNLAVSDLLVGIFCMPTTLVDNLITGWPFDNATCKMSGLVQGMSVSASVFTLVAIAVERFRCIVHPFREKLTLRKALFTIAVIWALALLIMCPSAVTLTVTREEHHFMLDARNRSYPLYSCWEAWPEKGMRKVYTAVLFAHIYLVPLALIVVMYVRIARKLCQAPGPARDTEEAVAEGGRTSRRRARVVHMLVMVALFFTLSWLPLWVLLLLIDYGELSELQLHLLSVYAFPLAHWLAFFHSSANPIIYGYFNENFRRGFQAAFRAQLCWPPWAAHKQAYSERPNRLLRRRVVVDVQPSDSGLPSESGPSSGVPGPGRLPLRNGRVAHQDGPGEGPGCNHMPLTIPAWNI
In words: Binding affinity at cloned recombinant rat NPFF1 receptor.

Assay [4] concerns the target T4, rNPFF2 (Rattus norvegicus, UniProt Q9EQD2).
T4 construct: expressed in transfected cells
As to the kind of experiment: Binding affinity at cloned recombinant rat NPFF2 receptor.

Assay [5] has as its target T1, hNPFF1. In words: Functional assay (agonist potency, intrinsic activity) at cloned human NPFF1 receptor. Format: cell-based. The following applies: for hNPFF1 IA (intrinsic activity): percent of maximum response elicited by neuropeptide FF, human NPFF1; for EC50: recombinant human NPFF1. Here is the method: (§1) Intrinsic activity of a compound is measured as the percent of maximum response.

The target of assay [6] is T2, hNPFF2. In words: Functional assay (agonist potency, intrinsic activity) at cloned human NPFF2 receptor. As to conditions: for hNPFF2 IA (intrinsic activity): percent of maximum response elicited by neuropeptide FF, human NPFF2; for EC50: recombinant human NPFF2. The class given is cell-based. As to the method:
as §1

Assay [7] concerns the target T3, rNPFF1. In words: Functional assay (agonist potency, intrinsic activity) at cloned rat NPFF1 receptor. Format: cell-based. As to conditions: for rNPFF1 IA (intrinsic activity): percent of maximum response elicited by neuropeptide FF, rat NPFF1; for EC50: recombinant rat NPFF1. Here is the method:
as §1

In assay [8] the target is T4, rNPFF2. As to the kind of experiment: Functional assay (agonist potency, intrinsic activity) at cloned rat NPFF2 receptor. The class given is cell-based. As to conditions: for rNPFF2 IA (intrinsic activity): percent of maximum response elicited by neuropeptide FF, rat NPFF2; for EC50: recombinant rat NPFF2. Here is the method:
as §1

Where [9] appears, read: rat cloned NPFF receptors, based on IA and Ki.

T1 sequence (Q9GZQ6 whole entry): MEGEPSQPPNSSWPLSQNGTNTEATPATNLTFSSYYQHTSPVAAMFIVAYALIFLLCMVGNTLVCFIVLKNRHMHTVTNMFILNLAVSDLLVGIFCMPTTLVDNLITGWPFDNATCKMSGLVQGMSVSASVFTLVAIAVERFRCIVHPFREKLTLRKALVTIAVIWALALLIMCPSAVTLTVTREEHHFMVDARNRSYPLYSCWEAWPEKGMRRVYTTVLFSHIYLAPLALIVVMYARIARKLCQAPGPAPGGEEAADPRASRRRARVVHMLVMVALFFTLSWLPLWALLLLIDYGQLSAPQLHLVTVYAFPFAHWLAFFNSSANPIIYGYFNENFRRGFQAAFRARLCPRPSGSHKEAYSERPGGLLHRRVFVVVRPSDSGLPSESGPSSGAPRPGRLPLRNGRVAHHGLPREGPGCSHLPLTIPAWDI
T4 sequence (Q9EQD2 whole entry): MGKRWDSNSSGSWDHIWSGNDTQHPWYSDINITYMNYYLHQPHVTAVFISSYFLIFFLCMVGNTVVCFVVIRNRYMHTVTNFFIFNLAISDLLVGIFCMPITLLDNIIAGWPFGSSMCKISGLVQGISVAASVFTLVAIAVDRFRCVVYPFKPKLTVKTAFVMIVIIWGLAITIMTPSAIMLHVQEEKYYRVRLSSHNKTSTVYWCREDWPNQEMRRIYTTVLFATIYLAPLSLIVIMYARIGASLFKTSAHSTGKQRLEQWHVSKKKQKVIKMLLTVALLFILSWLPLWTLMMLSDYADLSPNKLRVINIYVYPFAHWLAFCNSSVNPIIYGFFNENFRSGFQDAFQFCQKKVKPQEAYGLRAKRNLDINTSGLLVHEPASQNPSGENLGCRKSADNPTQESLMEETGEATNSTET

Regarding `Cc1nc(NC(=N)N)nc2cc(-c3ccccc3)ccc12` [Compound 1023, N-(4-methyl-7-phenyl-2-quinazolinyl)guanidine], the Ki on hNPFF1 [1] stood at 228 nM; on hNPFF2 [2], 2920 nM; on rNPFF1 [3] it was 4 nM; on rNPFF2 [4], 1020 nM. In addition, on hNPFF1 [5], the “hNPFF1 IA (intrinsic activity)” value is reported as “Inactive”. In addition, the EC50 was over 10 µM on hNPFF1 [5], 4110 nM at hNPFF2 [6], over 10 µM at rNPFF1 [7] and 3160 nM on rNPFF2 [8]. On hNPFF2 [6], the “hNPFF2 IA (intrinsic activity)” value is 43% NPFF. In addition, the “rNPFF1 IA (intrinsic activity)” value on rNPFF1 [7] is “Inactive”. For the same molecule, the “rNPFF2 IA (intrinsic activity)” value at rNPFF2 [8] is given as 35% NPFF.
On to `CCCCCc1ccc2nc(NC(=N)N)nc(C)c2c1` [Compound 2001, N-(4-methyl-6-pentyl-2-quinazolinyl)guanidine], for which the Ki is 50 nM on hNPFF1 [1], 376 nM at hNPFF2 [2], 8 nM at rNPFF1 [3] and 221 nM on rNPFF2 [4]. Besides, on hNPFF1 [5], the “hNPFF1 IA (intrinsic activity)” value is “Inactive”. Moreover, at hNPFF2 [6], the “hNPFF2 IA (intrinsic activity)” value amounted to 84% NPFF. In addition, the values for the EC50 at hNPFF2 [6], at rNPFF1 [7] and on rNPFF2 [8] were 625 nM, 0.242 µM and 97 nM, respectively. The “rNPFF1 IA (intrinsic activity)” value on rNPFF1 [7] is reported as 71% NPFF. For the same molecule, the “rNPFF2 IA (intrinsic activity)” value at rNPFF2 [8] was found to be 103% NPFF.
For `Cc1ccc2c(C)nc(NC(=N)N)nc2c1` [Compound 3001, N-(4,7-dimethyl-2-quinazolinyl)guanidine], the Ki was 46 nM at hNPFF1 [1], 1720 nM on hNPFF2 [2], 50 nM at rNPFF1 [3] and 1220 nM at rNPFF2 [4]. For the same molecule, the “hNPFF1 IA (intrinsic activity)” value at hNPFF1 [5] was “Inactive”. Further, the EC50 at hNPFF1 [5] is over 10 µM; on hNPFF2 [6], over 10000 nM. Also, the “hNPFF2 IA (intrinsic activity)” value at hNPFF2 [6] was “Inactive”. The “classification as agonist or antagonist at NPFF1” value on rNPFF1 [7] (setting [9]) is reported as “antagonists”. For the same molecule, at rNPFF2 [8] (setting [9]), the “classification as agonist or antagonist at NPFF2” value is “antagonists”.
Take `CCc1ccc2nc(NC(=N)N)cc(C)c2c1` [Compound 4002, N-(6-ethyl-4-methyl-2-quinolinyl)guanidine]: the Ki turned out to be 50 nM on hNPFF1 [1], 232 nM on hNPFF2 [2], 11 nM on rNPFF1 [3] and 308 nM on rNPFF2 [4]. Moreover, the “hNPFF1 IA (intrinsic activity)” value on hNPFF1 [5] is “Inactive”. The 50% effective concentration (EC50) is over 10 µM at hNPFF1 [5], 314 nM at hNPFF2 [6], over 10 µM at rNPFF1 [7] and 125 nM at rNPFF2 [8]. Further, the “hNPFF2 IA (intrinsic activity)” value at hNPFF2 [6] came out at 69% NPFF. The “rNPFF1 IA (intrinsic activity)” value on rNPFF1 [7] was “Inactive”. In addition, the “rNPFF2 IA (intrinsic activity)” value on rNPFF2 [8] is 84% NPFF.
Take `Cc1cc(NC(=N)N)nc2c(C)cccc12` [Compound 6002, N-(4,8-dimethyl-2-quinolinyl)guanidine]: the Ki at hNPFF1 [1] is 157 nM; on hNPFF2 [2], 952 nM; on rNPFF1 [3], 91 nM; at rNPFF2 [4], 883 nM. Also, the “rNPFF1 IA (intrinsic activity)” value on rNPFF1 [7] was “Inactive”. Further, the results for the EC50 on rNPFF1 [7] and at rNPFF2 [8] were over 10 µM and over 10000 nM, respectively. At rNPFF2 [8], the “rNPFF2 IA (intrinsic activity)” value was “Inactive”.
For the molecule `CCc1cc(NC(=N)N)nc2cc(C)ccc12` [Compound 6003, N-(4-ethyl-7-methyl-2-quinolinyl)guanidine], the Ki on hNPFF1 [1] came to 28 nM; at hNPFF2 [2], 113 nM; at rNPFF1 [3], 21 nM; at rNPFF2 [4], 203 nM. Also, the “rNPFF1 IA (intrinsic activity)” value at rNPFF1 [7] is on record as “Inactive”. The figures for the EC50 at rNPFF1 [7] and on rNPFF2 [8] were over 10 µM and over 10000 nM, respectively. Also, the “rNPFF2 IA (intrinsic activity)” value at rNPFF2 [8] is “Inactive”.

(Values after patent US20030139431A1 (priority 2001, published 2003).)
